Converted amounts (≈) assume the structure as drawn. Positions of bridges follow the written chain, without caps; N, C: chain ends. Residues, ends and D or L forms follow the SMILES beside them. No end group written: not given here.
What was measured:
E. coli 25922 = experiment: MIC, modified microtiter dilution; type: cell-based, Escherichia coli; settings: MHB, 2–7 × 10^5 CFU/ml, 37°C, 24 h, lowest concentration with no turbidity, at least three independent repeats
Text: (§1) The experiment was repeated at least three times independently.

E. coli UB1005 = experiment: MIC, modified microtiter dilution; type: cell-based, Escherichia coli; settings: MHB, 2–7 × 10^5 CFU/ml, 37°C, 24 h, no turbidity, at least three independent repeats
Text: as §1

E. coli K88 = settings: MHB, 2–7 × 10^5 CFU/ml, 37°C, 24 h, no turbidity, at least three independent repeats
Text: (§2) The bacterial strains Escherichia coli (E. coli) ATCC 25922, E. coli K88, E. coli K99, Pseudomonas aeruginosa (P. aeruginosa) ATCC 27853, Escherichia coli (E. coli) UB1005, Salmonella typhimurium 14028, Salmonella pullorum (S. pullorum) C7913, S. typhimurium C7731, S. aureus ATCC 29213, MRSA ATCC 43300, and S. aureus ATCC 25923 were obtained from the College of Veterinary Medicine, Northeast Agricultural University, China. Lactobacillus plantarum (L. plantarum) 8014, Lactobacillus rhamnosus (L. rhamnosus) 7469, L. rhamnosus 1.0911, L. rhamnosus 1.0936, and L. rhamnosus 1.0385 were obtained from the Key Laboratory of Food College, Northeast Agricultural University, China.
(§3) As in a previous study, the antimicrobial activities of the AMPs were investigated using a modified standard microtiter dilution method ([Dong et al., 2014]). The peptides were serially diluted with a solution containing 0.01% acetic acid and 0.2% bovine serum albumin (BSA, Sigma) in 96-well plates. The bacteria grew to the mid-log phase and then were dissolved in MHB at concentration of 2–7 × 10^5 CFU/ml. The peptides and bacterial solution were mixed in equal volume in a 37°C incubator for 24 h. […] Mueller-Hinton broth with microorganisms was used as the positive control, and the pure broth was used as the negative control. The experiment was repeated at least three times independently.

E. coli K99 = settings: MHB, 2–7 × 10^5 CFU/ml, 37°C, 24 h, no turbidity, at least three independent repeats
Text: as §2, §3

S. typhimurium 14028 = experiment: MIC, modified microtiter dilution; type: cell-based, Salmonella typhimurium; settings: MHB, 2–7 × 10^5 CFU/ml, 37°C, 24 h, no turbidity, at least three independent repeats
Text: as §1

S. typhimurium 7731 = experiment: MIC, modified microtiter dilution; type: cell-based, Salmonella typhimurium; settings: MHB, 2–7 × 10^5 CFU/ml, 37°C, 24 h, no turbidity, at least three independent repeats
Text: as §1

S. pullorum 7913 = experiment: MIC, modified microtiter dilution; type: cell-based, Salmonella pullorum; settings: MHB, 2–7 × 10^5 CFU/ml, 37°C, 24 h, no turbidity, at least three independent repeats
Text: as §1

P. aeruginosa 27853 = experiment: MIC, modified microtiter dilution; type: cell-based, Pseudomonas aeruginosa; settings: MHB, 2–7 × 10^5 CFU/ml, 37°C, 24 h, no turbidity, at least three independent repeats
Text: as §1

S. aureus 25923 = experiment: MIC, modified microtiter dilution; type: cell-based, Staphylococcus aureus; settings: MHB, 2–7 × 10^5 CFU/ml, 37°C, 24 h, no turbidity, at least three independent repeats
Text: as §1

S. aureus 29213 [1] = experiment: MIC, modified microtiter dilution; type: cell-based, Staphylococcus aureus; settings: MHB, 2–7 × 10^5 CFU/ml, 37°C, 24 h, no turbidity, at least three independent repeats
Text: as §1

MRSA 43300 = type: cell-based, Staphylococcus aureus; settings: MHB, 2–7 × 10^5 CFU/ml, 37°C, 24 h, no turbidity, at least three independent repeats
Text: as §1

L. plantarum 8014 = experiment: MIC, modified microtiter dilution; type: cell-based, Lactobacillus plantarum; settings: 2–7 × 10^5 CFU/ml, 37°C, 24 h, no turbidity, at least three independent repeats
Text: as §1

L. rhamnosus 1.0385 = experiment: MIC, modified microtiter dilution; type: cell-based, Lactobacillus rhamnosus; settings: 2–7 × 10^5 CFU/ml, 37°C, 24 h, no turbidity, at least three independent repeats
Text: as §1

L. rhamnosus 1.0911 = experiment: MIC, modified microtiter dilution; type: cell-based, Lactobacillus rhamnosus; settings: 2–7 × 10^5 CFU/ml, 37°C, 24 h, no turbidity, at least three independent repeats
Text: as §1

L. rhamnosus 1.0936 = experiment: MIC, modified microtiter dilution; type: cell-based, Lactobacillus rhamnosus; settings: 2–7 × 10^5 CFU/ml, 37°C, 24 h, no turbidity, at least three independent repeats
Text: as §1

L. rhamnosus 7469 = experiment: MIC, modified microtiter dilution; type: cell-based, Lactobacillus rhamnosus; settings: 2–7 × 10^5 CFU/ml, 37°C, 24 h, no turbidity, at least three independent repeats
Text: as §1

S. aureus 29213 [2] = experiment: MIC in the presence of physiological salts; type: cell-based, Staphylococcus aureus; settings: three independent repeats; for MIC against S. aureus 29213, FeCl3: 4 μM FeCl3; for MIC against S. aureus 29213, FeCl3 / MIC against S. aureus 29213, NH4Cl / MIC against S. aureus 29213, ZnCl2 / MIC against S. aureus 29213, MgCl2 / MIC against S. aureus 29213, CaCl2 / MIC against S. aureus 29213, KCl / MIC against S. aureus 29213, NaCl: unit not given in Table 4; for MIC against S. aureus 29213, NH4Cl: 6 μM NH4Cl; for MIC against S. aureus 29213, ZnCl2: 8 μM ZnCl2; for MIC against S. aureus 29213, MgCl2: 1 mM MgCl2; for MIC against S. aureus 29213, CaCl2: 2 mM CaCl2; for MIC against S. aureus 29213, KCl: 4.5 mM KCl; for MIC against S. aureus 29213, NaCl: 150 mM NaCl
Protocol: as §1
The MIC of peptides was determined in the presence of salts at physiological concentrations (150 mM NaCl, 4.5 mM KCl, 6 μM NH4Cl, 8 μM ZnCl2, 1 mM MgCl2, 2 mM CaCl2, and 4 μM FeCl3) as described previously ([Dong et al., 2014]). All experiments were performed three times independently.

[3] = test system: panel of bacterial species; experiment: MIC against a panel of bacterial species (summary statements); type: cell-based; settings: for antimicrobial activity against the tested microorganisms: all tested bacteria, up to the highest concentration measured
Text: as §1

RAW 264.7 cells = experiment: Cytotoxicity, MTT dye reduction assay; type: cell-based, murine; settings: highest concentration of 128 μM, 4 h, three independent repeats
Protocol: The cytotoxicity of peptides was determined by healthy human erythrocytes and the murine macrophage cell line RAW 264.7 via a hemolysis assay and MTT dye reduction assay, respectively ([Wang et al., 2018]). In the hemolysis assay, fresh hRBCs from healthy people were centrifuged for 5 min at 1,000 × g and then washed three times with PBS (pH = 7.2). The 100 μL erythrocyte suspension and peptides were incubated for 1.5 h in an incubator at 37°C. The 96-well plates were centrifuged at 1,000 × g for 5 min, and the supernatants were carefully aspirated. The absorbance at 570 nm indicated the leakage of hemoglobin. The hRBCs in the PBS sample was used as the negative control, and 0.1% Triton X-100 addition served as the positive control. In the MTT dye reduction assay, 1.0–2.0 × 10^5 cells were plated in 96-well plates and then treated with various concentrations of peptides for 4 h at 37°C in a 5% CO2 incubator. Subsequently, 50 μL of MTT was added to the plated cells at a final concentration of 0.5 mg/mL and incubated for 4 h. Then, the cells were centrifuged at 1000 × g for 5 min, and the supernatants were discarded. Formazan crystals were dissolved in 150 μL of DMSO, and the OD570 nm was measured using a microplate reader (TECAN GENios F129004; TECAN, Austria). The experiment was repeated three times independently.

Compound | MIC E. coli 25922 (E. coli 25922) | MIC E. coli UB1005 (E. coli UB1005) | MIC E. coli K88 (E. coli K88) | MIC E. coli K99 (E. coli K99) | MIC S. typhimurium 14028 (S. typhimurium 14028) | MIC S. typhimurium 7731 (S. typhimurium 7731) | MIC S. pullorum 7913 (S. pullorum 7913) | MIC P. aeruginosa 27853 (P. aeruginosa 27853) | MIC S. aureus 25923 (S. aureus 25923) | MIC S. aureus 29213 (S. aureus 29213 [1]) | MIC MRSA 43300 (MRSA 43300) | MIC L. plantarum 8014 (L. plantarum 8014) | MIC L. rhamnosus 1.0385 (L. rhamnosus 1.0385) | MIC L. rhamnosus 1.0911 (L. rhamnosus 1.0911) | MIC L. rhamnosus 1.0936 (L. rhamnosus 1.0936) | MIC L. rhamnosus 7469 (L. rhamnosus 7469) | MIC against S. aureus 29213, FeCl3 (S. aureus 29213 [2]) | MIC against S. aureus 29213, NH4Cl (S. aureus 29213 [2]) | MIC against S. aureus 29213, ZnCl2 (S. aureus 29213 [2]) | MIC against S. aureus 29213, MgCl2 (S. aureus 29213 [2]) | other results
CC(C)C[C@H](NC(=O)[C@H](CC(C)C)NC(=O)[C@H](Cc1c[nH]c2ccccc12)NC(=O)[C@H](Cc1c[nH]c2ccccc12)NC(=O)[C@H](Cc1c[nH]c2ccccc12)NC(=O)[C@H](CCCNC(=N)N)NC(=O)[C@H](CS)NC(=O)[C@H](Cc1ccccc1)NC(=O)[C@H](Cc1ccc(O)cc1)NC(=O)[C@H](CO)NC(=O)[C@H](C)NC(=O)[C@@H](N)CS)C(N)=O [Peptide S4] (H-CASYFCRWWWLL-NH2; N-terminus assumed) | >64 µM | >64 µM | >64 µM | >64 µM | >64 µM | >64 µM | >64 µM | >64 µM | >64 µM | >64 µM | >64 µM | >64 µM | >64 µM | >64 µM | >64 µM | >64 µM | >64 µM | >64 µM | >64 µM | >64 µM | MIC against S. aureus 29213, CaCl2 (S. aureus 29213 [2]): >64 µM; MIC against S. aureus 29213, KCl (S. aureus 29213 [2]): >64 µM; MIC against S. aureus 29213, NaCl (S. aureus 29213 [2]): >64 µM; antimicrobial activity against the tested microorganisms [3]: failed to show antimicrobial activity; RAW 264.7 cell survival rate (RAW 264.7 cells): 90%
C[C@@H]1NC(=O)[C@@H](N)CSSC[C@@H](C(=O)N[C@@H](CCCNC(=N)N)C(=O)N[C@@H](Cc2c[nH]c3ccccc23)C(=O)N[C@@H](Cc2c[nH]c3ccccc23)C(=O)N[C@@H](Cc2c[nH]c3ccccc23)C(=O)N[C@@H](CCCNC(=N)N)C(=O)N[C@@H](CCCNC(=N)N)C(N)=O)NC(=O)[C@H](Cc2ccccc2)NC(=O)[C@H](Cc2ccc(O)cc2)NC(=O)[C@H](CO)NC1=O [Peptide S1] (H-CASYFCRWWWRR-NH2; disulfide 1-6; N-terminus assumed) | 8 µM (≈ 13.7 µg/mL) | 8 µM (≈ 13.7 µg/mL) | 32 µM (≈ 54.9 µg/mL) | 4 µM (≈ 6.87 µg/mL) | 64 µM (≈ 110 µg/mL) | 32 µM (≈ 54.9 µg/mL) | 8 µM (≈ 13.7 µg/mL) | >64 µM | 4 µM (≈ 6.87 µg/mL) | 4 µM (≈ 6.87 µg/mL) | 4 µM (≈ 6.87 µg/mL) | >64 µM | >64 µM | >64 µM | >64 µM | >64 µM | 8 µM | 4 µM | 1 µM | 4 µM | MIC against S. aureus 29213, CaCl2 (S. aureus 29213 [2]): 8 µM; MIC against S. aureus 29213, KCl (S. aureus 29213 [2]): 4 µM; MIC against S. aureus 29213, NaCl (S. aureus 29213 [2]): 4 µM; concentrations suppressing growth of tested Gram-negative bacteria ([3]; all tested Gram-negative bacteria except P. aeruginosa 27853): 4 to 64 µM; RAW 264.7 cell survival rate (RAW 264.7 cells): 86%
RWWWAA-NH2 [Peptide S8] | >64 µM | >64 µM | >64 µM | >64 µM | >64 µM | >64 µM | >64 µM | >64 µM | >64 µM | >64 µM | >64 µM | >64 µM | >64 µM | >64 µM | >64 µM | >64 µM | >64 µM | >64 µM | 64 µM | >64 µM | MIC against S. aureus 29213, CaCl2 (S. aureus 29213 [2]): >64 µM; MIC against S. aureus 29213, KCl (S. aureus 29213 [2]): >64 µM; MIC against S. aureus 29213, NaCl (S. aureus 29213 [2]): >64 µM; RAW 264.7 cell survival rate (RAW 264.7 cells): 85%
C[C@@H]1NC(=O)[C@@H](N)CSSC[C@@H](C(N)=O)NC(=O)[C@H](Cc2ccccc2)NC(=O)[C@H](Cc2ccc(O)cc2)NC(=O)[C@H](CO)NC1=O [Peptide S5] (H-CASYFC-NH2; disulfide 1-6; N-terminus and C-terminus assumed) | – | – | – | – | – | – | – | – | – | – | – | – | – | – | – | – | – | – | – | – | MIC against S. aureus 29213 (column MIC, no added salt) (S. aureus 29213 [2]; control without added salt, unit not printed in Table 4, μM as in Table 3): >64 µM; antimicrobial activity against the tested microorganisms [3]: failed to show antimicrobial activity
RWWWRR-NH2 [Peptide S6] | 32 µM | 32 µM | 32 µM | 32 µM | >64 µM | >64 µM | >64 µM | >64 µM | 16 µM | 16 µM | 8 µM | >64 µM | >64 µM | >64 µM | >64 µM | >64 µM | 32 µM | 16 µM | 4 µM | 32 µM | MIC against S. aureus 29213, CaCl2 (S. aureus 29213 [2]): 32 µM; MIC against S. aureus 29213, KCl (S. aureus 29213 [2]): 16 µM; MIC against S. aureus 29213, NaCl (S. aureus 29213 [2]): 8 µM; RAW 264.7 cell survival rate (RAW 264.7 cells): 94%

— article PMC7516806, “Hybrid Antimicrobial Peptide Targeting Staphylococcus aureus and Displaying Anti-infective Activity in a Murine Model” (Frontiers in Microbiology, 2020)
